This passage reports IC50 results from patent US11759455B2, “Substituted 1H-imidazo[4,5-b]pyridin-2(3H)-ones and their use as GLUN2B receptor modulators” (JANSSEN PHARMACEUTICA NV, priority 2016, dated 2023).

This test has as its target T1, human GluN1/GluN2B NMDA receptors (Homo sapiens, UniProt Q13224).
T1 construct: expressed in transfected cells
Kind of test: Cell-based calcium flux (FLIPR) assay on cloned human NR1/NR2B ion channels expressed in mammalian cells (standard and HTS buffer variants).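 Also: stable Tet-On inducible cell line, Ca2+ influx triggered by glutamate at about EC40 plus 10 µM glycine, fluorescent dye read-out over 5 min, normalized to control wells.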

Where [1] appears, read: standard assay buffer (0.5 mM MgCl2 dye loading; 137 mM NaCl, 4 mM KCl assay buffer), human GluN1/GluN2B cells, read-out: NR2B IC50 (μM) standard assay.
Setting [2] is: standard assay buffer (0.5 mM MgCl2 in dye loading buffer; 137 mM NaCl, 4 mM KCl in assay buffer), human GluN1/GluN2B, read-out: NR2B IC50 (μM) standard assay.
[3] abbreviates: HTS assay buffer (1.5 mM MgCl2 in dye loading buffer; 150 mM NaCl, 3 mM KCl in assay buffer), human GluN1/GluN2B, read-out: NR2B IC50 (μM) HTS assay.

The structures appear in SMILES notation. Read-outs that look alike come from different tables or passages of the source. Where only a bound is given, the exact number is not on record here.

T1 sequence (Q13224 27-1484, other chains not shown): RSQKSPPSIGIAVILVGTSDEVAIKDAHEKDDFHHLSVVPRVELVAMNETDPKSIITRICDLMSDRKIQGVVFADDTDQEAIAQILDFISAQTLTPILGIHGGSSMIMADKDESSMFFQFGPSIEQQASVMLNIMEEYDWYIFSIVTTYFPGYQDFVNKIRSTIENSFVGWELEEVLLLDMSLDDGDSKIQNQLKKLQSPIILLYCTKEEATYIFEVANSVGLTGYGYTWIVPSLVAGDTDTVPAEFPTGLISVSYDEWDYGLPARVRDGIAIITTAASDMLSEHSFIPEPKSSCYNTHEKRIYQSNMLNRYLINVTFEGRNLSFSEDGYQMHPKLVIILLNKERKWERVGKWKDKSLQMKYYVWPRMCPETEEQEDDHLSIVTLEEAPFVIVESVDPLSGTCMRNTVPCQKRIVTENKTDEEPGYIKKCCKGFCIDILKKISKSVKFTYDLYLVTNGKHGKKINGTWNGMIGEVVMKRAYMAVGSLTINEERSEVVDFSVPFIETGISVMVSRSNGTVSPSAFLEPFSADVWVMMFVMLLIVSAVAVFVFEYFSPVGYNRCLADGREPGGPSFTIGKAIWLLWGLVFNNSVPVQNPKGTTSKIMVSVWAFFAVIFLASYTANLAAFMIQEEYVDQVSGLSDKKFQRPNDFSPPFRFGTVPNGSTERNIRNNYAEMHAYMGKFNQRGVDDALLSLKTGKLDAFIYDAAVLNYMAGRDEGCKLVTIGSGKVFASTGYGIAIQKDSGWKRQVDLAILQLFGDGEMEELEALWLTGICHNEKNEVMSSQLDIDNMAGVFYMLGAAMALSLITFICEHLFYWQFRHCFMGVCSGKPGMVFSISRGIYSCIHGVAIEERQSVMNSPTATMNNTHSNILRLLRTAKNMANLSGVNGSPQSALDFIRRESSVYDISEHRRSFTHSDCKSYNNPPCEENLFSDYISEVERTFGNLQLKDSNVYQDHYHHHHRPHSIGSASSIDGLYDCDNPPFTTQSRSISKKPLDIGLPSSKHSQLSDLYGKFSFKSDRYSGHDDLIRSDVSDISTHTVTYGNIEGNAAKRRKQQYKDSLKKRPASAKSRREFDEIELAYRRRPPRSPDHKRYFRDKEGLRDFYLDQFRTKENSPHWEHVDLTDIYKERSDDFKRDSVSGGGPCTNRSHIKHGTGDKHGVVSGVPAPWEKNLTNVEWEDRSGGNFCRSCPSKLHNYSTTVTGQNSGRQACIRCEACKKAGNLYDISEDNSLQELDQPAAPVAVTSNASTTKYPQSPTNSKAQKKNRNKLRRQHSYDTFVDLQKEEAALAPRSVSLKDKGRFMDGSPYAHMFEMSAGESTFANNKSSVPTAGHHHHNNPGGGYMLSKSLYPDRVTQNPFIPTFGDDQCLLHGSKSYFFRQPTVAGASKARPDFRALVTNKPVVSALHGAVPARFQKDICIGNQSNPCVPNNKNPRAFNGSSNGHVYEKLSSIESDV

The term IC50 denotes the midpoint of a concentration-inhibition curve. On to `O=c1[nH]c2ncc(-c3cccc(C(F)(F)F)c3)cc2n1CCN1CCCC1` [Example 146, 1-(2-Pyrrolidin-1-ylethyl)-6-[3-(trifluoromethyl)phenyl]-3H-imidazo[4,5-b]pyridin-2-one], for which the half-inhibitory concentration (IC50) under setting [1] was 0.506 µM.

In the case of `Cn1cc(Cn2c(=O)n(C)c3ncc(-c4ccc(C(F)F)s4)cc32)cn1` [Example 561, 6-[5-(Difluoromethyl)-2-thienyl]-3-methyl-1-[(1-methylpyrazol-4-yl)methyl]imidazo[4,5-b]pyridin-2-one], the IC50 under setting [2] turned out to be 0.354 µM.

Turning to `CCC(=O)Cn1c(=O)n(C)c2ncc(-c3ccc(F)c(C)c3F)cc21` [Example 391, 6-(2,4-Difluoro-3-methyl-phenyl)-3-methyl-1-(2-oxobutyl)imidazo[4,5-b]pyridin-2-one], the IC50 under setting [2] turned out to be 0.026 µM.

With `COc1cc(F)ccc1-c1cnc2[nH]c(=O)n(Cc3cc(C)on3)c2c1` [Example 520, 6-(4-Fluoro-2-methoxy-phenyl)-1-[(5-methylisoxazol-3-yl)methyl]-3H-imidazo[4,5-b]pyridin-2-one], the half-maximal inhibitory concentration (IC50) under setting [2] was 0.019 µM.

Consider `Cc1c(F)ccc(-c2cnc3c(c2)n(CC(=O)N2CC(F)C2)c(=O)n3CF)c1F` [Example 600, 6-(2,4-Difluoro-3-methyl-phenyl)-1-[2-(3-fluoroazetidin-1-yl)-2-oxo-ethyl]-3-(fluoromethyl)imidazo[4,5-b]pyridin-2-one], for which the concentration for half-maximal inhibition (IC50) under setting [2] was 0.017 µM.

For `O=c1[nH]c2ncc(-c3cccc(C(F)(F)F)c3)cc2n1Cc1nn[nH]n1` [Example 236, 1-(2H-Tetrazol-5-ylmethyl)-6-[3-(trifluoromethyl)phenyl]-3H-imidazo[4,5-b]pyridin-2-one], the IC50 under setting [1] was over 5 µM.

As to `O=C(Cn1c(=O)[nH]c2ncc(-c3cccc(C(F)(F)F)c3)cc21)N1CC2(CNC2)C1` [Example 207, 1-[2-(2,6-Diazaspiro[3.3]heptan-6-yl)-2-oxo-ethyl]-6-[3-(trifluoromethyl)phenyl]-3H-imidazo[4,5-b]pyridin-2-one], the IC50 under setting [1] was 0.453 µM.

As to `Cc1csc(-c2cnc3[nH]c(=O)n(Cc4nc(C)no4)c3c2)c1` [Example 127, 1-[(3-Methyl-1,2,4-oxadiazol-5-yl)methyl]-6-(4-methyl-2-thienyl)-3H-imidazo[4,5-b]pyridin-2-one], the 50% inhibitory concentration (IC50) under setting [1] was 0.095 µM.

For `COCc1noc(Cn2c(=O)[nH]c3ncc(-c4ccc(F)c(F)c4)cc32)n1` [Example 145, 6-(3,4-Difluorophenyl)-1-[[3-(methoxymethyl)-1,2,4-oxadiazol-5-yl]methyl]-3H-imidazo[4,5-b]pyridin-2-one], under setting [1], the IC50 was found to be 1.31 µM.

With `COc1ccc(Cn2c(=O)[nH]c3ncc(-c4cccc(C(F)(F)F)c4)cc32)cc1F` [Example 220, 1-[(3-Fluoro-4-methoxy-phenyl)methyl]-6-[3-(trifluoromethyl)phenyl]-3H-imidazo[4,5-b]pyridin-2-one], under setting [1], the IC50 was 1.65 µM.

For `COc1cc(Cn2c(=O)[nH]c3ncc(-c4c(F)cccc4OC)cc32)cc(OC)c1` [Example 509, 1-[(3,5-Dimethoxyphenyl)methyl]-6-(2-fluoro-6-methoxy-phenyl)-3H-imidazo[4,5-b]pyridin-2-one], the IC50 under setting [3] was found to be 0.884 µM.

As to `Cn1c(=O)n(Cc2cccnn2)c2cc(-c3cc(F)c(F)c(C(F)(F)F)c3)cnc21` [Example 387, 6-[3,4-Difluoro-5-(trifluoromethyl)phenyl]-3-methyl-1-(pyridazin-3-ylmethyl)imidazo[4,5-b]pyridin-2-one], the IC50 under setting [2] turned out to be 0.022 µM.

As for `Cc1csc(-c2cnc3c(c2)n(CC(=O)N(C)C)c(=O)n3C)c1` [Example 80, N,N-Dimethyl-2-[3-methyl-6-(4-methyl-2-thienyl)-2-oxo-imidazo[4,5-b]pyridin-1-yl]acetamide], the IC50 under setting [1] was 0.03 µM.

As to `Cc1c(F)ccc(-c2cnc3c(c2)n(CC(=O)N2CC(F)C2)c(=O)n3C)c1F` [Example 400, 6-(2,4-Difluoro-3-methyl-phenyl)-1-[2-(3-fluoroazetidin-1-yl)-2-oxo-ethyl]-3-methyl-imidazo[4,5-b]pyridin-2-one], the concentration for half-maximal inhibition (IC50) under setting [2] was determined as 0.017 µM.

On to `Cc1c(F)ccc(-c2cnc3c(c2)n(Cc2cncc(Cl)c2)c(=O)n3C)c1F` [Example 368, 1-[(5-Chloro-3-pyridyl)methyl]-6-(2,4-difluoro-3-methyl-phenyl)-3-methyl-imidazo[4,5-b]pyridin-2-one], for which, under setting [2], the half-maximal inhibitory concentration (IC50) is 0.356 µM.

Consider `Cc1cc(C)cc(-c2cnc3[nH]c(=O)n(Cc4ccccc4C#N)c3c2)c1` [Example 488, 2-[[6-(3,5-Dimethylphenyl)-2-oxo-3H-imidazo[4,5-b]pyridin-1-yl]methyl]benzonitrile], for which, under setting [3], the IC50 stood at 4.95 µM.

`Cc1cc(F)ccc1-c1cnc2[nH]c(=O)n(CC(=O)NC3CC3)c2c1` [Example 36, N-Cyclopropyl-2-[6-(4-fluoro-2-methyl-phenyl)-2-oxo-3H-imidazo[4,5-b]pyridin-1-yl]acetamide]: the IC50 under setting [1] came to 0.159 µM.

In the case of `CN(C)C(=O)Cn1c(=O)n(C)c2ncc(-c3cccc(F)c3F)cc21` [Example 425, 2-[6-(2,3-Difluorophenyl)-3-methyl-2-oxo-imidazo[4,5-b]pyridin-1-yl]-N,N-dimethyl-acetamide], the IC50 under setting [2] worked out at 0.408 µM.

For the compound `O=c1[nH]c2ncc(-c3cccc(C(F)(F)F)c3)cc2n1Cc1ncc(F)cn1` [Example 256, 1-[(5-Fluoropyrimidin-2-yl)methyl]-6-[3-(trifluoromethyl)phenyl]-3H-imidazo[4,5-b]pyridin-2-one], the half-inhibitory concentration (IC50) under setting [1] turned out to be 0.134 µM.

As to `O=c1[nH]c2ncc(-c3cc(F)cc(F)c3)cc2n1CCN1CCC1` [Example 159, 1-[2-(Azetidin-1-yl)ethyl]-6-(3,5-difluorophenyl)-3H-imidazo[4,5-b]pyridin-2-one], the concentration for half-maximal inhibition (IC50) under setting [1] came out at 0.211 µM.

In the case of `CC1CCN(CCn2c(=O)[nH]c3ncc(-c4cccc(C(F)(F)F)c4)cc32)C1` (centres unmarked) [Example 164, 1-[2-(3-Methylpyrrolidin-1-yl)ethyl]-6-[3-(trifluoromethyl)phenyl]-3H-imidazo[4,5-b]pyridin-2-one], under setting [1], the IC50 came to 1.22 µM.

As to `CN(C)C(=O)Cn1c(=O)[nH]c2ncc(-c3ccc(C(F)(F)F)s3)cc21` [Example 26, N,N-Dimethyl-2-[2-oxo-6-(5-(trifluoromethyl)-2-thienyl]-3H-imidazo[4,5-b]pyridin-1-yl)acetamide], the half-inhibitory concentration (IC50) under setting [1] worked out at 0.012 µM.

For the compound `Cn1cc(Cn2c(=O)n(C)c3ncc(-c4cccc(C(F)(F)F)c4)cc32)nn1` [Example 552, 3-Methyl-1-[(1-methyltriazol-4-yl)methyl]-6-[3-(trifluoromethyl)phenyl]imidazo[4,5-b]pyridin-2-one], the 50% inhibitory concentration (IC50) under setting [2] amounted to 0.13 µM.

Turning to `Cc1ccc(Cn2c(=O)[nH]c3ncc(-c4cccc(C(F)(F)F)c4)cc32)cn1` [Example 235, 1-[(6-Methyl-3-pyridyl)methyl]-6-[3-(trifluoromethyl)phenyl]-3H-imidazo[4,5-b]pyridin-2-one], the IC50 under setting [1] stood at 0.256 µM.

As to `CCC(=O)Cn1c(=O)n(C)c2ncc(-c3ccc(F)c(F)c3)cc21` [Example 390, 6-(3,4-Difluorophenyl)-3-methyl-1-(2-oxobutyl)imidazo[4,5-b]pyridin-2-one], the half-maximal inhibitory concentration (IC50) under setting [2] amounted to 0.019 µM.

As to `Cc1cccc(C)c1-c1cnc2[nH]c(=O)n(CCN3CCCC3)c2c1` [Example 178, 6-(2,6-Dimethylphenyl)-1-(2-pyrrolidin-1-ylethyl)-3H-imidazo[4,5-b]pyridin-2-one], the IC50 under setting [1] amounted to 20.7 µM.

`Cc1cc(C)cc(-c2cnc3[nH]c(=O)n(Cc4cc(C)on4)c3c2)c1` [Example 516, 6-(3,5-Dimethylphenyl)-1-[(5-methylisoxazol-3-yl)methyl]-3H-imidazo[4,5-b]pyridin-2-one]: the concentration for half-maximal inhibition (IC50) under setting [2] is 0.491 µM.

As to `Cc1cc(-c2cnc3c(c2)n(Cc2ccccn2)c(=O)n3C)ccc1F` [Example 6, 6-(4-Fluoro-3-methyl-phenyl)-3-methyl-1-(2-pyridylmethyl)imidazo[4,5-b]pyridin-2-one], under setting [1], the IC50 is 0.048 µM.

Regarding `COc1ccc(-c2cnc3[nH]c(=O)n(Cc4cccc(F)c4)c3c2)c(OC)c1` [Example 496, 6-(2,4-Dimethoxyphenyl)-1-[(3-fluorophenyl)methyl]-3H-imidazo[4,5-b]pyridin-2-one], the IC50 under setting [3] turned out to be 2.79 µM.

For the compound `CNC(=O)Cn1c(=O)[nH]c2ncc(-c3ccc(Cl)cc3)cc21` [Example 436, 2-[6-(4-Chlorophenyl)-2-oxo-3H-imidazo[4,5-b]pyridin-1-yl]-N-methyl-acetamide], the concentration for half-maximal inhibition (IC50) under setting [3] came to 4.7 µM.

In the case of `O=c1[nH]c2ncc(-c3cccc(C(F)(F)F)c3)cc2n1Cc1ccncn1` [Example 23, 1-(Pyrimidin-4-ylmethyl)-6-[3-(trifluoromethyl)phenyl]-3H-imidazo[4,5-b]pyridin-2-one], the half-maximal inhibitory concentration (IC50) under setting [1] is 0.22 µM.

For the compound `Cc1cc(-c2cnc3[nH]c(=O)n(CC(=O)N(C)C)c3c2)sc1Cl` [Example 321, 2-[6-(5-Chloro-4-methyl-2-thienyl)-2-oxo-3H-imidazo[4,5-b]pyridin-1-yl]-N,N-dimethyl-acetamide], the IC50 under setting [2] was found to be 0.014 µM.

For the compound `Cc1ncc(-c2cnc3c(c2)n(CC(=O)N2CC(F)C2)c(=O)n3C)s1` [Example 113, 1-[2-(3-Fluoroazetidin-1-yl)-2-oxo-ethyl]-3-methyl-6-(2-methylthiazol-5-yl)imidazo[4,5-b]pyridin-2-one], the 50% inhibitory concentration (IC50) under setting [1] is 5.36 µM.

Consider `O=C(Cn1c(=O)[nH]c2ncc(-c3cccc(C(F)(F)F)c3)cc21)N1CC(CCF)C1` [Example 536, 1-[2-[3-(2-Fluoroethyl)azetidin-1-yl]-2-oxo-ethyl]-6-[3-(trifluoromethyl)phenyl]-3H-imidazo[4,5-b]pyridin-2-one], for which the half-inhibitory concentration (IC50) under setting [2] came out at 0.163 µM.

Regarding `COc1cccc(F)c1-c1cnc2[nH]c(=O)n(Cc3ccccc3C#N)c2c1` [Example 481, 2-[[6-(2-Fluoro-6-methoxy-phenyl)-2-oxo-3H-imidazo[4,5-b]pyridin-1-yl]methyl]benzonitrile], the IC50 under setting [2] came to 2.25 µM.
